In article PMC4627230, “Identification of TAX2 peptide as a new unpredicted anti-cancer agent” (Oncotarget, 2015):

Columns and labels:
Assay type in all cases: cell-based, human
TSP-1 binding to VEGF = experiment: Co-immunoprecipitation TSP-1 with VEGF; conditions: HUVECs, 100 μM; conditioned media
Protocol: (§1) Protein lysates prepared in ice-cold lysis buffer or conditioned media were subjected to immunoprecipitation assay using the Pierce Co-IP kit (Thermo Fisher Scientific) according to the manufacturer's protocol. 10 μg of antibody (anti CD47, anti-CD36, anti-FGF2, anti-VEGF, anti-β1 integrin and anti-LRP1 heavy chain) or non-specific IgGs were incubated with the delivered resin and covalently coupled. The antibody-coupled resin was incubated with whole HUVEC protein lysate overnight at 4°C under gentle agitation (no cross-linker was used to stabilize protein complexes before HUVEC lysis). Then the resin was washed and the protein complexes bound to the antibody were eluted. Immunoprecipitated protein complexes were solubilized under denaturing and reducing conditions, heated to 100°C for 5 min and analyzed by immunoblotting as described above. […]
(§2) receptors. HUVECs were treated with TAX2 (100 μM) or scrambled peptide (Ctrl, 100 μM). FGF-2 and VEGF were immunoprecipitated from conditioned media using anti-FGF-2 (clone C-18) and anti-VEGF (clone C-1), respectively. β1 integrin and LRP-1 were immunoprecipitated from total protein lysates using anti-β1 integrin (clone BV7) and anti-LRP-1 heavy chain (clone 8G1), respectively. […] Histogram represents the quantification of relative ligand-bound TSP-1 under TAX2 treatment as compared to control. […]

TSP-1 binding to LRP-1 = experiment: Co-immunoprecipitation TSP-1 with LRP-1; conditions: HUVECs, 100 μM; total protein lysates
Protocol: as §1, §2

TSP-1 binding to FGF-2 = experiment: Co-immunoprecipitation TSP-1 with FGF-2; conditions: HUVECs, 100 μM; conditioned media
Protocol: as §1, §2

[1] = test system: TSP-1 binding to β1 integrin; experiment: Co-immunoprecipitation TSP-1 with β1 integrin; conditions: HUVECs, 100 μM; total protein lysates
Protocol: as §1, §2

HUVEC = HUVEC viability

## CEVSQLLKGDAC (disulfide) [TAX2, CD47-derived cyclic disulfide dodecapeptide …]
TSP-1 binding to VEGF
  TSP-1 binding to VEGF: does not affect
TSP-1 binding to LRP-1
  TSP-1 binding to LRP-1: does not affect
TSP-1 binding to FGF-2
  TSP-1 binding to FGF-2: does not affect
[1]
  TSP-1 binding to β1 integrin: does not affect
HUVEC
  cytotoxic effect on HUVECs: cannot be attributed to any cytotoxic effect
HUVEC; percent compared to control treatment, t test
  HUVEC viability: not significant
